Non-standard residues stand in square brackets, D forms with d. Residues, ends and D or L forms follow the SMILES beside them.
Assays:
[1] = biological target: T1, EphB4 on the surface of A2780cp20 cells (Homo sapiens, UniProt P54760); assay: Cell-based binding assay: displacement of EFNB2-Fc from A2780cp20 cells (flow cytometry); details: EFNB2-Fc 20 nM, BIDEN-AP 0-100 µM, 25 °C, 1 h, PE-anti-Fc flow cytometry, duplicate (Fig. 1D,E)
T1 construct: endogenous in cells; host or cells: A2780cp20 ovarian cancer cells
T1 sequence (P54760 16-987): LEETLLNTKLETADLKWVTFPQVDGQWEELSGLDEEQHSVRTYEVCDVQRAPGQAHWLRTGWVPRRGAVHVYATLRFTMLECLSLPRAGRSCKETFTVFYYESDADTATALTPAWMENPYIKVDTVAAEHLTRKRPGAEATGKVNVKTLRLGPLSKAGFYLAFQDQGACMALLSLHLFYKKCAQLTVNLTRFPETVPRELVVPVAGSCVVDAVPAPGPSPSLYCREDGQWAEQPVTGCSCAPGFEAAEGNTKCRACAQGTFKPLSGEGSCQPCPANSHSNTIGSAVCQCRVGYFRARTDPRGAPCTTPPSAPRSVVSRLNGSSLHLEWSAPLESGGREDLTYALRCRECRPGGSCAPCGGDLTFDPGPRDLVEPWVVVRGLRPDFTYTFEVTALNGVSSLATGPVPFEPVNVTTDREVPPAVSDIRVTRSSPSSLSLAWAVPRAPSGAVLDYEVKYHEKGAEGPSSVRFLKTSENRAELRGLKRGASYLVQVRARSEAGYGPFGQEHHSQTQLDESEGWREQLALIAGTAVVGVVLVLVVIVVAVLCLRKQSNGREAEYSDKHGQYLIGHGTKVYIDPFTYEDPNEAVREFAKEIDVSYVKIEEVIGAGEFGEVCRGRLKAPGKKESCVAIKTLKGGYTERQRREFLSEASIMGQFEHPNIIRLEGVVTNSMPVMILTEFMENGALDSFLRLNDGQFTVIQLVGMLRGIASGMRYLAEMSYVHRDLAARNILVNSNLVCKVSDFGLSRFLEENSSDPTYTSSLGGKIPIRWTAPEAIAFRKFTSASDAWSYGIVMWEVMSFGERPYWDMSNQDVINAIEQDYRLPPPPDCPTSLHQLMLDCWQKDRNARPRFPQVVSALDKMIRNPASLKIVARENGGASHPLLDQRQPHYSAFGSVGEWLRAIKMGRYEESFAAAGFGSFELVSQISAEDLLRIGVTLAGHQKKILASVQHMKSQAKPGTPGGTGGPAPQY
Description: Figure 1 Novel EphB4 agonist BIDEN-AP has high receptor binding affinity. (A) Structure of BIDEN-AP. D-Tyr-P3 is highlighted in red. (B) Surface plasmon resonance (SPR) sensorgrams of BIDEN-AP. Vertical axes, in response units (RU), represent binding of the peptide to immobilized EphB4. (C) Competition of BIDEN-AP with EFNB2-Fc for EphB4 binding. BIDEN-AP at concentrations from 2 nM to 1000 nM was mixed with human EphB4 (30 nM) and injected onto sensor chips coated with EFNB2-Fc. (D) Competition of BIDEN-AP with EFNB2-Fc for EphB4 binding at the cellular level. A2780cp20 cells were co-incubated with EFNB2-Fc (20 nM) and BIDEN-AP (at concentrations from 0 to 100 µM) at 25 °C for 1 h. EFNB2-Fc bound to the cells was probed with phycoerythrin-labeled anti-Fc antibody and analyzed by flow cytometry. (E) Bound EFNB2-Fc as a function of BIDEN-AP concentration. […]
A2780cp20 ovarian cancer cells (1×10^6 cells/mL) were incubated with EFNB2-Fc (20 nM) and BIDEN-AP at concentrations ranging from 0 to 100 µM at 25 °C for 1 h. After washings, EFNB2-Fc bound to the cells were probed with phycoerythrin (PE)-labeled anti-Fc antibody and analyzed by flow cytometry. Binding of BIDEN-AP to A2780cp20 cells was determined by its capacity to displace EFNB2-Fc’s binding to the tumor cells, measured by decreased PE fluorescence signal. Cells were analyzed in a Cellquest fluorocytometer (BD Bioscience, San Jose, CA). […]

MDA-HGSC-1 PDX tumor = assay: Subcutaneous MDA-HGSC-1 patient-derived xenograft model; assay type: in vivo, mice; details: 300 µg/injection i.p., 14 doses (Fig. S10B)
From the text: Under Institutional Review Board (IRB protocol PA15-0441) and IACUC approval at MD Anderson Cancer Center, patients with HGSC who were being treated at MD Anderson gave consent for the use of their tumor tissue in this study. Four- to six-week-old female Balb C athymic nude mice (Harlan Laboratories) were implanted with one PDX 3×3×3 mm tumor cube (MDA-HGSOC-1 high-grade serous ovarian cancer; generation 9) in the dorsal flank to create subcutaneous HGSC-PDX model. Tumor size was monitored by caliber, and tumor volume was calculated using the formula V(cm^3) = (length x width^2)/2. Mice were randomly assigned to the PBS vehicle control or BIDEN-AP treatment group, 6 mice per group, once tumor size reached ~100 mm^3 (21 days after implantation). Treatments consisted of intraperitoneal injection of PBS or BIDEN-AP at 300 μg/injection (100 μL/injection) once every other day for a total of 14 doses. At the end of the study (day 49), all mice were euthanized, and tumors were collected, weighed, snap-frozen in optimal cutting temperature compound with liquid nitrogen, and cryosectioned into 5-μm sections for immunohistochemical staining of CD31 and Ki67 markers.
incubated overnight at 4°C.
Slides were subjected to recombinant terminal
The slides were then labeled by adding
Microvessel density was evaluated
magnification from three tumor samples.
For CD31 staining, slides were […]

IC50 [1]: ~1000 nM
Compound: CC[C@H](C)[C@H](NC(=O)[C@@H]1CCCN1C(=O)CNC(=O)[C@H](CC(N)=O)NC(=O)[C@@H]1CCCN1C(=O)[C@H](CO)NC(=O)[C@H](Cc1ccccc1)NC(=O)[C@H](CC(C)C)NC(=O)[C@@H](Cc1ccc(O)cc1)NC(=O)[C@H](CC(N)=O)NC(=O)[C@@H](N)[C@@H](C)O)C(=O)N[C@@H](C)C(=O)N[C@@H](CCCNC(=N)N)C(=O)N[C@@H](C)C(=O)N[C@@H](Cc1c[nH]c2ccccc12)C(N)=O [BIDEN-AP] (H-TN[dY]LFSPNGPIARAW-NH2)
body weight change compared to control group (MDA-HGSC-1 PDX tumor): did not cause body weight change

Source: article PMC6965176, “Targeting Forward and Reverse EphB4/EFNB2 Signaling by a Peptide with Dual Functions” (Scientific Reports, 2020)
